Data as given in patent US8501992B2, “Hydroxyphenyl sulfonamides as antiapoptotic bcl inhibitors” (Bristol-Myers Squibb Company, priority 2008, dated 2013).

Assays:
Assay type in all cases: binding
Bcl-2 = biological target: T1, Bcl-2 (Homo sapiens, UniProt P10415); assay: Bcl2/Bim fluorescence polarization assay (FPA); settings: BIM BH3 peptide 5 nM, Bcl-2 11 nM, Ki calculated from FPA data
T1 construct: without their C-terminal transmembrane domain; GST; made in house
From the text: (§1) Compounds were profiled for their ability to disrupt in vitro binding interactions in fluorescence polarization assays (FPAs) using synthetic fluorochrome-labeled Bcl homology 3 (BH3) peptides derived from BIM [(FAM)-Ahx-[…]-NH2 (SEQ ID NO: 1) (GenBank Accession No. O43521)] or BAK [Ac-GQVGRQLAIIGE-LYS(FAM)-INR-NH2 (SEQ ID NO:2) (GenBank Accession No. Q16611) amino acid sequences and four bacterial recombinant proteins [Bcl-b (GenBank Accession No. Q9HD36), Bcl-2 (GenBank Accession No. P10415), Bcl-Xl (GenBank Accession No. Q07817), Mcl-1 (GenBank Accession No. Q07820)] without their C-terminal transmembrane domain. Proteins were purified from bacterial lysates using their glutathione S-transferase (GST)-tag (Bcl-b, Bcl-2, Mcl-1) or His6-tag (Bcl-Xl) and following one-step affinity chromatography procedures. Dissociation constants (Kd) for peptide binding protein were determined by fluorescence polarization in FPAs measuring BIM BH3 peptide binding Bcl-b, Mcl-1 or Bcl-2 protein or BAK BH3 peptide binding Bcl-Xl protein. The Kd values were generated by fitting the experimental data using a sigmoidal dose-response nonlinear regression model.
(§2) Compound inhibitory concentration values, IC50 (50% reduction in fluorescence polarization), were determined using fluorochrome-labeled BH3 peptides and recombinant Bcl proteins in fluorescence polarization assays (FPAs). Compounds diluted in DMSO (0.5 ul) were transferred (in duplicate) to individual wells of a 384-well plate. The fluorochrome-labeled peptide was added followed by recombinant protein addition. Each binding FPA reaction (50 ul) contained BIM BH3 peptide (5 nM) or BAK BH3 peptide (1.5 nM) and Bcl-b (40 nM), Mcl-1 (28 nM), Bcl-2 (11 nM) or Bcl-Xl. (5 nM) protein suspended in assay buffer [20 mM sodium phosphate, pH 7.4, 1 mM EDTA, 50 mM NaCl., 0.05% Pluronic F68]. Reaction mixtures were incubated at ambient temperature for 60 minutes prior to measuring polarization (mP) using an Analyst (LJL, Molecular Devices, Sunnyvale, Calif.) programmed to detect an emission wavelength of 530 nm after excitation (excitation wavelength=485 nm).
(§3) Competitive compound inhibition constants (Ki) were calculated using FPA experimental data and a mathematical equation, Ki=[I]50/([L]50/Kd+[P]0/Kd+1), where [I]50 denotes free inhibitor concentration at 50% inhibition, [L]50 is free labeled ligand concentration at 50% inhibition, [P]0 is free protein concentration at 0% inhibition, and Kd is the dissociation constant of the protein-ligand complex.

Mcl-1 = biological target: T2, Mcl-1 (Homo sapiens, UniProt Q07820); assay: Mcl-1/Bim fluorescence polarization assay (FPA); settings: BIM BH3 peptide 5 nM, Mcl-1 28 nM, Ki calculated from FPA data
T2 construct: without their C-terminal transmembrane domain; GST; made in house
T2 sequence (Q07820 1-327 limits assumed): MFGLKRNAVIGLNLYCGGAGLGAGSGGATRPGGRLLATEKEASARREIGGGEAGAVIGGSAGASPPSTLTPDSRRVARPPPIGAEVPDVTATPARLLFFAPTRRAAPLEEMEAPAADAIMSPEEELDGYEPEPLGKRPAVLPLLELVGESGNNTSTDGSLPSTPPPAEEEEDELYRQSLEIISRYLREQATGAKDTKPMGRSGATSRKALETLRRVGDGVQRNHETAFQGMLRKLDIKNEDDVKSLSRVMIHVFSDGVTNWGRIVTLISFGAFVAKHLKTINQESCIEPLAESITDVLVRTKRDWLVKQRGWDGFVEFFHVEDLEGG
From the text: as §1, §2, §3

Bcl-b = biological target: T3, Bcl-b (Homo sapiens, UniProt Q9HD36); assay: Bclb/Bim fluorescence polarization assay (FPA); settings: BIM BH3 peptide 5 nM, Bcl-b 40 nM, Ki calculated from FPA data
T3 construct: without their C-terminal transmembrane domain; GST; made in house
T3 sequence (Q9HD36 1-182 limits assumed): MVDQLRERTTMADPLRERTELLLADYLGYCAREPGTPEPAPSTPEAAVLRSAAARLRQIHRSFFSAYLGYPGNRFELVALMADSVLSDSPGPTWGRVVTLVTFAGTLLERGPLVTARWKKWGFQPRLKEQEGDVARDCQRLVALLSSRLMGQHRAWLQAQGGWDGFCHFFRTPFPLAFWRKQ
From the text: as §1, §2, §3

T1 sequence (P10415 1-211 limits assumed): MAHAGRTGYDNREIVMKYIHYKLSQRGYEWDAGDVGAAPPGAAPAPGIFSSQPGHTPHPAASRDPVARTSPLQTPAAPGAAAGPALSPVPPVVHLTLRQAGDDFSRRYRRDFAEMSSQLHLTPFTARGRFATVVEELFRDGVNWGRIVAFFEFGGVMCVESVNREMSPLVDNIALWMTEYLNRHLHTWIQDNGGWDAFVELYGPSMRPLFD

| Ki (Bcl-2) [nM] | Ki (Mcl-1) [nM] | Ki (Bcl-b) [nM] | SMILES |
| --- | --- | --- | --- |
| 180 | 550 | 150 | CC(C)CN(Cc1cccc(CN(Cc2ccc(-c3ccc(F)cc3)cc2)S(=O)(=O)c2cc(Cl)cc(Cl)c2O)c1)C(=O)c1ccc2[nH]c(=O)c(=O)[nH]c2c1 [Example 190, N-(3-((3,5-Dichloro-N-((4′-fluorobiphenyl-4-yl)methyl)-2-hydroxyphenylsulfonamido)methyl)-benzyl)-N-isobutyl-2,3-dioxo-1,2,3,4-tetrahydroquinoxaline-6-carboxamide] |
| 110 | 530 | 180 | CC(C)CN(Cc1cccc(CN(Cc2ccc(-c3ccc(F)cc3)cc2)S(=O)(=O)c2cc(Cl)cc(Cl)c2O)c1)C(=O)c1nc2ccccc2s1 [Example 191, N-(3-((3,5-Dichloro-N-((4′-fluorobiphenyl-4-yl)methyl)-2-hydroxyphenylsulfonamido)methyl)-benzyl)-N-isobutylbenzo[d]thiazole-2-carboxamide] |
| 480 | 530 | 160 | CC(C)NC(=O)c1cc(Cl)c(O)c(S(=O)(=O)N(Cc2ccc(F)cc2)Cc2cccc(-c3ccc(Cl)cc3)c2)c1 [Example 211, 3-Chloro-5-(N-((4′-chlorobiphenyl-3-yl)methyl)-N-(4-fluorobenzyl)-sulfamoyl)-4-hydroxy-N-isopropylbenzamide] |
| 1220 | 2700 | 470 | O=C(NCCCO)c1cc(Cl)c(O)c(S(=O)(=O)N(Cc2ccc(F)cc2)Cc2cccc(-c3ccc(Cl)cc3)c2)c1 [Example 213, 3-Chloro-5-(N-((4′-chlorobiphenyl-3-yl)methyl)-N-(4-fluorobenzyl)-sulfamoyl)-4-hydroxy-N-(3-hydroxypropyl)benzamide] |
| 1800 | 1640 | 610 | O=C(NCC(O)CO)c1cc(Cl)c(O)c(S(=O)(=O)N(Cc2ccc(F)cc2)Cc2cccc(-c3ccc(Cl)cc3)c2)c1 (stereo not drawn) [Example 214, 3-Chloro-5-(N-((4′-chlorobiphenyl-3-yl)methyl)-N-(4-fluorobenzyl)-sulfamoyl)-N-(2,3-dihydroxypropyl)-4-hydroxybenzamide] |
| 170 | 40 | 120 | O=C(NCc1ccccc1)c1cc(Cl)c(O)c(S(=O)(=O)N(Cc2ccc(F)cc2)Cc2ccc(Oc3ccc(C(F)(F)F)cc3)cc2)c1 [Example 219, N-Benzyl-3-chloro-5-(N-(4-fluoro-benzyl)-N-(4-(4-(trifluoromethyl)-phenoxy)benzyl)sulfamoyl)-4-hydroxybenzamide] |
| 170 | 30 | 30 | COc1c(Cl)cc(CN(CCn2ccc3ccccc32)S(=O)(=O)c2cc(C(=O)NCc3ccccc3)cc(Cl)c2O)cc1-c1ccc(Cl)cc1 [Example 222, 3-(N-(2-(1H-Indol-1-yl)ethyl)-N-((4′,5-dichloro-6-methoxybiphenyl-3-yl)methyl)sulfamoyl)-N-benzyl-5-chloro-4-hydroxybenzamide] |

Second part, the molecule before the results:

| SMILES | Ki (Bcl-2) [nM] | Ki (Mcl-1) [nM] | Ki (Bcl-b) [nM] |
| --- | --- | --- | --- |
| CC(C)CN(Cc1ccc(CN(CC(C)C)S(=O)(=O)c2cc(Cl)cc(Cl)c2O)cc1)S(=O)(=O)c1cc(Cl)cc(Cl)c1O [Example 97, N-Isobutyl-N-{4-[(isobutyl-(3,5-dichloro-2-hydroxybenzene)sulfonyl-amino)-methyl]-benzyl}-(3,5-dichloro-2-hydroxybenzene)sulfonamide] | 110 | 100 | 70 |
| O=S(=O)(NCc1ccc(CN(Cc2ccc(F)cc2)S(=O)(=O)c2cc(Cl)cc(Cl)c2O)cc1)c1cc(Cl)cc(Cl)c1 [Example 98, 3,5-Dichloro-N-(4-((3,5-dichlorophenylsulfonamido)methyl)benzyl)-N-(4-fluorobenzyl)-2-hydroxybenzenesulfonamide] | 230 | 280 | 160 |
| O=C(c1ccc(CN(Cc2ccc(F)cc2)S(=O)(=O)c2cc(Cl)cc(Cl)c2O)cc1)N(Cc1ccc(F)cc1)Cc1cc(Cl)cc(Cl)c1 [Example 106, 4-((3,5-Dichloro-N-(4-fluorobenzyl)-2-hydroxyphenylsulfonamido)methyl)-N-(3,5-dichlorobenzyl)-N-(4-fluorobenzyl)benzamide] | 40 | 40 | 40 |
| CC(C)N(Cc1ccccc1)C(=O)c1ccc(CN(Cc2ccc(F)cc2)S(=O)(=O)c2cc(Cl)cc(Cl)c2O)cc1 [Example 107, N-Benzyl-4-((3,5-dichloro-N-(4-fluorobenzyl)-2-hydroxyphenylsulfonamido)methyl)-N-isopropylbenzamide] | 480 | 520 | 210 |
| O=C(c1ccc(CN(Cc2ccc(F)cc2)S(=O)(=O)c2cc(Cl)cc(Cl)c2O)cc1)N1CCCCC1 [Example 130] | 840 | 2060 | 440 |
| CC(C)CCNC(=O)c1ccc(CN(Cc2ccc(F)cc2)S(=O)(=O)c2cc(Cl)cc(Cl)c2O)cc1 [Example 135, 4-((3,5-Dichloro-N-(4-fluorobenzyl)-2-hydroxyphenylsulfonamido)methyl)-N-isopentylbenzamide] | 610 | 490 | 280 |
| CN(CCc1ccccc1)C(=O)c1ccc(CN(Cc2ccc(F)cc2)S(=O)(=O)c2cc(Cl)cc(Cl)c2O)cc1 [Example 137, 4-((3,5-Dichloro-N-(4-fluorobenzyl)-2-hydroxyphenylsulfonamido)methyl)-N-methyl-N-phenethylbenzamide] | 250 | 480 | 220 |
| CCCCNC(=O)c1ccc(CN(Cc2ccc(F)cc2)S(=O)(=O)c2cc(Cl)cc(Cl)c2O)cc1 [Example 138, N-Butyl-4-((3,5-dichloro-N-(4-fluorobenzyl)-2-hydroxyphenylsulfonamido)methyl)-benzamide] | 820 | 1760 | 450 |
| O=C(c1ccc(CN(Cc2ccc(F)cc2)S(=O)(=O)c2cc(Cl)cc(Cl)c2O)cc1)N1CCN(c2cnccn2)CC1 [Example 140, 3,5-Dichloro-N-(4-fluorobenzyl)-2-hydroxy-N-(4-(4-(pyrazin-2-yl)piperazine-1-carbonyl)benzyl)benzenesulfonamide] | 660 | 1730 | 500 |
| O=C(N[C@H]1C[C@@H]1c1ccccc1)c1ccc(CN(Cc2ccc(F)cc2)S(=O)(=O)c2cc(Cl)cc(Cl)c2O)cc1 [Example 143, 4-((3,5-Dichloro-N-(4-fluorobenzyl)-2-hydroxyphenylsulfonamido)methyl)-N-((1S,2R)-2-phenylcyclopropyl)benzamide] | 370 | 450 | 170 |
| NS(=O)(=O)c1ccc(CNC(=O)c2ccc(CN(Cc3ccc(F)cc3)S(=O)(=O)c3cc(Cl)cc(Cl)c3O)cc2)cc1 [Example 147, 4-((3,5-Dichloro-N-(4-fluorobenzyl)-2-hydroxyphenylsulfonamido)methyl)-N-(4-sulfamoylbenzyl)benzamide] | 960 | 1730 | 450 |
| CN(C)c1ccc(CNC(=O)c2ccc(CN(Cc3ccc(F)cc3)S(=O)(=O)c3cc(Cl)cc(Cl)c3O)cc2)cc1 [Example 150, 4-((3,5-Dichloro-N-(4-fluorobenzyl)-2-hydroxyphenylsulfonamido)methyl)-N-(4-(dimethylamino)benzyl)benzamide] | 440 | 460 | 200 |
| O=C(c1ccc(N(Cc2ccc(F)cc2)S(=O)(=O)c2cc(Cl)cc(Cl)c2O)cc1)N(Cc1ccc(F)cc1)Cc1cc(Cl)cc(Cl)c1 [Example 175, 4-(3,5-Dichloro-N-(4-fluorobenzyl)-2-hydroxyphenylsulfonamido)-N-(3,5-dichlorobenzyl)-N-(4-fluorobenzyl)benzamide] | 40 | 30 | 60 |
| O=S(=O)(c1cc(Cl)cc(Cl)c1)N(CCO)Cc1ccc(CN(Cc2ccc(F)cc2)S(=O)(=O)c2cc(Cl)cc(Cl)c2O)cc1 [Example 176] | 440 | 480 | 180 |
